Tested on: Plutella xylostella
Experiment: Insecticidal test against Plutella xylostella
Details: 500 ppm drug solution; Chinese cabbage seedlings with eggs immersed about 30 sec; six days after immersion; 25° C.
Description: Six days after the immersion in the drug solution, the number of surviving insects was examined. […] In triplicate using 10 per plot.

| Structure (SMILES) | corrected mortality, rating of assessment |
| --- | --- |
| O=C1CC(c2ccc(C(F)(F)F)cc2)CC(O)=C1C(=S)Nc1ccccc1 (stereo not drawn) [1-93] | D or higher |
| Cc1cc(Cl)ccc1NC(=O)C1=C(O)CC(c2ccc(C(F)(F)F)cc2)CC1=O (stereo not drawn) [1-16] | D or higher |
| O=C1CC(c2ccc(C(F)(F)F)cc2)CC(O)=C1C(=O)Nc1ccc(F)cc1 (stereo not drawn) [1-6] | D or higher |
| O=C1CC(c2ccc(C(F)(F)F)cc2)CC(O)=C1C(=O)Nc1cccc(C(F)(F)F)c1 (stereo not drawn) [1-30] | D or higher |
| O=C1CC(c2ccc(C(F)(F)F)cc2)CC(O)=C1C(=O)NC1CCCCC1 (stereo not drawn) [1-11] | D or higher |
| O=C1CC(c2ccc(C(F)(F)F)nc2)CC(O)=C1C(=O)Nc1ccnc(F)c1 (stereo not drawn) [1-151] | D or higher |
| N#Cc1ccc(NC(=O)C2=C(O)CC(c3ccc(C(F)(F)F)cc3)CC2=O)cc1 (stereo not drawn) [1-7] | D or higher |
| O=C1CC(c2ccc3c(c2)OCO3)CC(O)=C1C(=O)Nc1ccc(F)cc1 (stereo not drawn) [1-222] | D or higher |
| O=C1CC(c2ccc(C(F)(F)F)cc2)CC(O)=C1C(=O)Nc1ccc(F)c(F)c1 (stereo not drawn) [1-19] | D or higher |
| O=C1CC(c2ccc([S+]([O-])C(F)(F)F)cc2)CC(O)=C1C(=O)Nc1ccc(F)cc1 (stereo not drawn) [1-211] | D or higher |
| O=C1CC(c2ccc(C(F)(F)F)cc2)CC(O)=C1C(=O)Nc1ccc(F)nc1 (stereo not drawn) [1-146] | D or higher |
| O=C1CC(c2ccc(Br)cn2)CC(O)=C1C(=S)Nc1ccc(F)cc1 (stereo not drawn) [1-229] | D or higher |
| O=C1CC(c2ccc(C(F)(F)F)cc2)CC(O)=C1C(=O)Nc1cccc([N+](=O)[O-])c1 (stereo not drawn) [1-35] | D or higher |
| O=C1CC(c2ccc(C(F)(F)F)cc2)CC(O)=C1C(=O)Nc1ccc(F)cc1F (stereo not drawn) [1-17] | D or higher |
| O=C1CC(c2ccc(C(F)(F)F)cc2)CC(O)=C1C(=O)Nc1cccs1 (stereo not drawn) [1-40] | D or higher |
| N#Cc1cccc(NC(=O)C2=C(O)CC(c3ccc(C(F)(F)F)cc3)CC2=O)c1 (stereo not drawn) [1-34] | D or higher |
| Cc1ccc(NC(=O)C2=C(O)CC(c3ccc(C(F)(F)F)cc3)CC2=O)cc1 (stereo not drawn) [1-15] | D or higher |
| O=C1CC(c2ccc(C(F)(F)F)cc2)CC(O)=C1C(=O)Nc1ccc2c(c1)OCO2 (stereo not drawn) [1-55] | D or higher |
| CSc1ccc(C2CC(=O)C(C(=O)Nc3ccc(F)cc3)=C(O)C2)cc1 (stereo not drawn) [1-208] | D or higher |
| O=C1CC(c2ccc(C(F)(F)F)nc2)CC(O)=C1C(=O)Nc1ccc(C(F)(F)F)cc1 (stereo not drawn) [1-69] | D or higher |
| O=C1CC(c2ccc(C(F)(F)F)cc2)CC(O)=C1C(=O)NC1CC1 (stereo not drawn) [1-144] | D or higher |
| O=C1CC(c2ccc(C(F)(F)F)cc2)CC(O)=C1C(=O)Nc1cccc2ccccc12 (stereo not drawn) [1-39] | D or higher |

| Structure (SMILES) | corrected mortality, rating of assessment |
| --- | --- |
| C[S+]([O-])c1ccc(C2CC(=O)C(C(=O)Nc3ccc(F)cc3)=C(O)C2)cc1 (stereo not drawn) [1-212] | D or higher |
| O=C1CC(c2ccc(C(F)(F)F)cc2)CC(O)=C1C(=O)Nc1ncc(F)cn1 (stereo not drawn) [1-155] | D or higher |
| O=C1CC(c2ccc(C(F)(F)F)cc2)CC(O)=C1C(=O)Nc1ccc(F)nn1 (stereo not drawn) [1-162] | D or higher |
| O=C1CC(c2ccc(S(=O)(=O)C(F)(F)F)cc2)CC(O)=C1C(=O)Nc1ccc(F)cc1 (stereo not drawn) [1-209] | D or higher |
| O=C1CC(c2ccc(SC(F)(F)F)cc2)CC(O)=C1C(=O)Nc1ccc(F)cc1 (stereo not drawn) [1-213] | D or higher |
| O=C1CC(c2ccc(SC(F)(F)F)cc2)CC(O)=C1C(=O)Nc1ccc(F)cc1 (stereo not drawn) [1-66] | D or higher |
| CSc1ccc(NC(=O)C2=C(O)CC(c3ccc(C(F)(F)F)cc3)CC2=O)cc1 (stereo not drawn) [1-49] | D or higher |
| O=C1CC(c2ccc(C(F)(F)F)nc2)CC(O)=C1C(=O)Nc1ccc(OC(F)(F)F)cc1 (stereo not drawn) [1-70] | D or higher |
| O=C1CC(c2ccc(OC(F)(F)F)cc2)CC(O)=C1C(=O)Nc1ccc(F)cc1 (stereo not drawn) [1-65] | D or higher |
| O=C1CC(c2ccc(C(F)(F)F)cc2)CC(O)=C1C(=O)NCc1ccccc1 (stereo not drawn) [1-12] | D or higher |
| O=C1CC(c2cccs2)CC(O)=C1C(=O)Nc1cccs1 (stereo not drawn) [1-75] | D or higher |
| NC(=O)c1ccc(C2CC(=O)C(C(=O)Nc3ccc(F)cc3)=C(O)C2)cc1 (stereo not drawn) [1-62] | D or higher |
| COc1ccc(NC(=O)C2=C(O)CC(c3ccc(C(F)(F)F)cc3)CC2=O)cc1 (stereo not drawn) [1-8] | D or higher |
| O=C1CC(c2ccc(C(F)(F)F)cc2)CC(O)=C1C(=O)Nc1c(F)cccc1F (stereo not drawn) [1-18] | D or higher |
| O=C1CC(c2ccc(C(F)(F)F)cc2)CC(O)=C1C(=O)Nc1cccc(F)c1 (stereo not drawn) [1-43] | D or higher |
| O=C1CC(c2ccc(C(F)(F)F)c(Cl)c2)CC(O)=C1C(=S)Nc1ccc(C(F)(F)F)cc1 (stereo not drawn) [1-77] | D or higher |
| O=C1CC(c2ccc(C(F)(F)F)cc2)CC(O)=C1C(=O)Nc1cccc2ncccc12 (stereo not drawn) [1-156] | D or higher |
| O=C1CC(c2ccc(C(F)(F)F)nc2)CC(O)=C1C(=S)Nc1ccc(F)cn1 (stereo not drawn) [1-231] | D or higher |
| C[S+]([O-])c1ccc(C2CC(=O)C(C(=O)Nc3ccc(Cl)cc3)=C(O)C2)cc1 (stereo not drawn) [1-233] | D or higher |
| O=C1CC(c2ccc(C(F)(F)F)nc2)CC(O)=C1C(=O)Nc1ccc(Cl)cc1 (stereo not drawn) [1-71] | D or higher |
| O=C1CC(c2ccc(C(F)(F)F)cc2)CC(O)=C1C(=S)Nc1ccc(F)cc1 (stereo not drawn) [1-81] | D or higher |
| O=C1CC(c2ccc(C(F)(F)F)cc2)CC(O)=C1C(=O)Nc1c(Cl)cccc1Cl (stereo not drawn) [1-23] | D or higher |

| Structure (SMILES) | corrected mortality, rating of assessment |
| --- | --- |
| O=C1CC(c2ccc(C(F)(F)F)cc2)CC(O)=C1C(=S)Nc1ccc(F)cn1 (stereo not drawn) [1-108] | D or higher |
| O=C1CC(c2ccc(C(F)(F)F)cc2)CC(O)=C1C(=O)Nc1ccc([S+]([O-])C(F)(F)F)cc1 (stereo not drawn) [1-52] | D or higher |
| CS(=O)(=O)c1ccc(C2CC(=O)C(C(=O)Nc3ccc(Cl)cc3)=C(O)C2)cc1 (stereo not drawn) [1-232] | D or higher |
| O=C1CC(c2cnco2)CC(O)=C1C(=O)Nc1ccc(F)cc1 (stereo not drawn) [1-223] | D or higher |
| O=C1CC(c2ccc([N+](=O)[O-])cc2)CC(O)=C1C(=O)Nc1ccc(F)cc1 (stereo not drawn) [1-207] | D or higher |
| CC(=O)c1ccc(NC(=O)C2=C(O)CC(c3ccc(C(F)(F)F)cc3)CC2=O)cc1 (stereo not drawn) [1-36] | D or higher |
| O=C1CC(c2ccc(C(F)(F)F)cc2)CC(O)=C1C(=O)Nc1ccc(S(=O)(=O)C(F)(F)F)cc1 (stereo not drawn) [1-53] | D or higher |
| O=C1CC(c2ccc(C(F)(F)F)cc2)CC(O)=C1C(=O)Nc1cccc(Cl)c1 (stereo not drawn) [1-21] | D or higher |
| O=C1CC(c2ccc(C(F)(F)F)cc2)CC(O)=C1C(=O)Nc1ccccc1F (stereo not drawn) [1-38, N-(2-fluorophenyl)-5-hydroxy-3-oxo-4′-(trifluoromethyl)-1,2,3,6-tetrahydro-[1,1′-biphenyl]-4-carboxamide] | D or higher |
| N#Cc1ccc(C2CC(=O)C(C(=O)Nc3ccc(F)cc3)=C(O)C2)cc1 (stereo not drawn) [1-61] | D or higher |
| N#Cc1ccc(NC(=S)C2=C(O)CC(c3ccc(C(F)(F)F)cc3)CC2=O)cc1 (stereo not drawn) [1-100] | D or higher |
| CSc1ccc(C2CC(=O)C(C(=O)Nc3ccc(Cl)cc3)=C(O)C2)cc1 (stereo not drawn) [1-234] | D or higher |
| Cc1ccc(C2CC(=O)C(C(=O)Nc3ccc(F)cc3)=C(O)C2)s1 (stereo not drawn) [1-76] | D or higher |
| Cc1ccccc1C1CC(=O)C(C(=O)Nc2ccc(F)cc2)=C(O)C1 (stereo not drawn) [1-1] | D or higher |
| O=C1CC(c2ccc(C(F)(F)F)cc2)CC(O)=C1C(=S)Nc1cccc(C(F)(F)F)c1 (stereo not drawn) [1-99] | D or higher |
| O=C1CC(c2ccc(C(F)(F)F)cc2)CC(O)=C1C(=O)Nc1ccc(Oc2ccccc2)cc1 (stereo not drawn) [1-54] | D or higher |
| O=C1CC(c2ccc(C(F)(F)F)cc2)CC(O)=C1C(=O)Nc1c(F)c(F)c(F)c(F)c1F (stereo not drawn) [1-45] | D or higher |
| Cc1ccc(C2CC(=O)C(C(=O)Nc3ccc(F)cc3)=C(O)C2)cc1 (stereo not drawn) [1-63] | D or higher |
| Cc1ccc(C2CC(=O)C(C(=O)Nc3ccc(F)cn3)=C(O)C2)cc1 (stereo not drawn) [1-148] | D or higher |
| O=C1CC(c2cc(C(F)(F)F)cc(C(F)(F)F)c2)CC(O)=C1C(=O)Nc1ccc(F)cc1 (stereo not drawn) [1-2] | D or higher |
| O=C1CC(c2ccc(C(F)(F)F)cc2)CC(O)=C1C(=O)Nc1ccc(C(F)(F)F)cn1 (stereo not drawn) [1-142] | D or higher |
| O=C1CC(c2ccc(C(F)(F)F)cc2)CC(O)=C1C(=S)Nc1ccccc1F (stereo not drawn) [1-94] | D or higher |

From patent publication US20250122147A1, “ARYL CYCLOHEXANEDIONE DERIVATIVE OR SALT THEREOF, PEST CONTROL AGENT CONTAINING SAME, AND METHOD FOR USE THEREOF” (ADEKA Corporation, priority 2021, published 2025)
